# Measured values published in patent US7074789B2, “Kinase inhibitors” (Amgen Inc., priority 1999, dated 2006).
# Experiments:
# Format in all cases: biochemical
# FGFR1 = biological target: T1, FGFR1 (Homo sapiens, UniProt P11362); experiment: Kinase inhibition assay (33P transfer), FGFR1; conditions: read-out: FGFR1-1
# T1 construct: Kinases are expressed as either kinase domains or full length constructs; made in house
# EGFR = biological target: T2, EGFR (Homo sapiens, UniProt P00533); experiment: Kinase inhibition assay (33P transfer), EGFR; conditions: Table 2, kinase inhibition class; read-out: EGFR-1
# T2 construct: Kinases are expressed as either kinase domains or full length constructs; made in house
# Outline: (§1)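 IC50: inhibitor concentration lowering 33P incorporation into immobilised substrate by 50%. Label transferred from ATP to poly(Glu,Tyr) 4:1 or poly(Arg,Ser) 3:1 is measured after a 0.5% phosphoric acid wash by liquid scintillation.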
# Itk = biological target: T3, Itk (Homo sapiens, UniProt Q08881); experiment: Kinase inhibition assay (33P transfer), Itk; conditions: Table 3; read-out: Itk-1
# T3 construct: Kinases are expressed as either kinase domains or full length constructs; made in house
# T3 sequence (Q08881 1-620): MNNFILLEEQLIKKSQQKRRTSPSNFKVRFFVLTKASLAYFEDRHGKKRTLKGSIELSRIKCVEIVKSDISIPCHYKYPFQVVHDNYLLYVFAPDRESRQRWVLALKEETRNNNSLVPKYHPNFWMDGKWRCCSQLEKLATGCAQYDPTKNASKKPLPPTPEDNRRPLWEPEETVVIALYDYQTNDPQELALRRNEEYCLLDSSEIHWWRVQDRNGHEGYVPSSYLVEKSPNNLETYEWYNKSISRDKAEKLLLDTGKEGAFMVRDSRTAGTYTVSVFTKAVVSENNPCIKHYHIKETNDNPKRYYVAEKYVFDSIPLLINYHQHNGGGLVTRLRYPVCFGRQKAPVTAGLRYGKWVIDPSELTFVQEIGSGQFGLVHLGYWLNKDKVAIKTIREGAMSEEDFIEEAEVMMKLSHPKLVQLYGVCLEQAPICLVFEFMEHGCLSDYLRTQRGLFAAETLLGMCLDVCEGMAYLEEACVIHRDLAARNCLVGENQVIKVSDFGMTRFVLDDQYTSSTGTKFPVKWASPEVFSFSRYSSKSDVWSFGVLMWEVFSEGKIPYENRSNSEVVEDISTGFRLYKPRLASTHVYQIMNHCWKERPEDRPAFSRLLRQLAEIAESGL
# Outline: as §1
# Lyn = biological target: T4, Lyn (Homo sapiens, UniProt P07948); experiment: Kinase inhibition assay (33P transfer), Lyn; conditions: Table 6, Lyn-1 kinase inhibition class
# T4 construct: Kinases are expressed as either kinase domains or full length constructs; made in house
# Outline: as §1
# c-Met = biological target: T5, c-Met (Homo sapiens, UniProt P08581); experiment: Kinase inhibition assay (33P transfer), c-Met; conditions: Table 2, kinase inhibition class; read-out: Met-1
# T5 construct: Kinases are expressed as either kinase domains or full length constructs; made in house
# Outline: as §1
# Zap-70 = biological target: T6, Zap-70 (Homo sapiens, UniProt P43403); experiment: Kinase inhibition assay (33P transfer), Zap-70; conditions: Table 3; read-out: Zap-1
# T6 construct: Kinases are expressed as either kinase domains or full length constructs; made in house
# T6 sequence (P43403 1-619): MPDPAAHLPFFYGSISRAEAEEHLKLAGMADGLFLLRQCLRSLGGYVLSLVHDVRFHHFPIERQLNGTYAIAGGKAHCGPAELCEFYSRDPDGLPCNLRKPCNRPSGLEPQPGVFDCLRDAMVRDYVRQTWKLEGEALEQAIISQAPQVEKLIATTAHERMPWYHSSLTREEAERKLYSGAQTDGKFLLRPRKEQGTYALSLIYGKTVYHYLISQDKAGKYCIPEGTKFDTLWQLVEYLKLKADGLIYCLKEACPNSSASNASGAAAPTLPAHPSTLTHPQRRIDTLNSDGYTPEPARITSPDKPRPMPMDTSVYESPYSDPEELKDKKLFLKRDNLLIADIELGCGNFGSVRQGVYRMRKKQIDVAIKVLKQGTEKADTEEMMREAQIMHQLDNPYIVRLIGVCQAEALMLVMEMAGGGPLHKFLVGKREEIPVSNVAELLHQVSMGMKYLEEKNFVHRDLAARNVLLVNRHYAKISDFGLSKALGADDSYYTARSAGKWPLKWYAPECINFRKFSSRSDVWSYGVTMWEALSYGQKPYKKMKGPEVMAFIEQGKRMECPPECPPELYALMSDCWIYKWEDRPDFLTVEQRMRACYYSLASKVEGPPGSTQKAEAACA
# Outline: (§2)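 Filterless plate radiometric format: immobilized poly(Glu,Tyr) 4:1 or poly(Arg,Ser) 3:1, 33P-labelled ATP, tagged recombinant kinase (some with regulatory partners). Incorporated label counted after phosphoric acid wash.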
# AKT = biological target: T7, AKT (Homo sapiens, UniProt Q9Y243); experiment: Kinase inhibition assay (33P transfer), AKT; conditions: Table 2, kinase inhibition class; read-out: AKT3-1
# T7 construct: Kinases are expressed as either kinase domains or full length constructs; made in house
# Outline: as §2
# Tek = biological target: T8, Tek (Homo sapiens, UniProt Q02763); experiment: Kinase inhibition assay (33P transfer), Tek; conditions: read-out: Tek-1
# T8 construct: Kinases are expressed as either kinase domains or full length constructs; made in house
# Outline: as §1
# Hck-1 = biological target: T9, Hck-1 (Homo sapiens, UniProt P08631); experiment: Kinase inhibition assay (33P transfer), Hck; conditions: Table 6, Hck-1 kinase inhibition class
# T9 construct: Kinases are expressed as either kinase domains or full length constructs; made in house
# IGFR-1 = biological target: T10, IGFR-1 (Homo sapiens, UniProt P08069); experiment: Kinase inhibition assay (33P transfer), IGFR-1; conditions: Table 2, kinase inhibition class
# T10 construct: Kinases are expressed as either kinase domains or full length constructs; made in house
# Fyn = biological target: T11, Fyn (Homo sapiens, UniProt P06241); experiment: Kinase inhibition assay (33P transfer), Fyn; conditions: read-out: Fyn-1
# T11 construct: Kinases are expressed as either kinase domains or full length constructs; made in house
# Outline: as §1
# ErbB4 = biological target: T12, ErbB4 (Homo sapiens, UniProt Q15303); experiment: Kinase inhibition assay (33P transfer), ErbB4; conditions: read-out: ErbB4-1
# T12 construct: Kinases are expressed as either kinase domains or full length constructs; made in house
# Kdr = biological target: T13, Kdr (Homo sapiens, UniProt P35968); experiment: Kinase inhibition assay (33P transfer), Kdr; conditions: Table 3; read-out: KDR-1
# T13 construct: Kinases are expressed as either kinase domains or full length constructs; made in house
# Outline: as §2
# Lck = biological target: T14, Lck (Homo sapiens, UniProt P06239); experiment: Kinase inhibition assay (33P transfer), Lck; conditions: Table 3; read-out: Lck-1
# T14 construct: Kinases are expressed as either kinase domains or full length constructs; made in house
# Outline: as §2
# T2 sequence (P00533 25-1210, species assumed): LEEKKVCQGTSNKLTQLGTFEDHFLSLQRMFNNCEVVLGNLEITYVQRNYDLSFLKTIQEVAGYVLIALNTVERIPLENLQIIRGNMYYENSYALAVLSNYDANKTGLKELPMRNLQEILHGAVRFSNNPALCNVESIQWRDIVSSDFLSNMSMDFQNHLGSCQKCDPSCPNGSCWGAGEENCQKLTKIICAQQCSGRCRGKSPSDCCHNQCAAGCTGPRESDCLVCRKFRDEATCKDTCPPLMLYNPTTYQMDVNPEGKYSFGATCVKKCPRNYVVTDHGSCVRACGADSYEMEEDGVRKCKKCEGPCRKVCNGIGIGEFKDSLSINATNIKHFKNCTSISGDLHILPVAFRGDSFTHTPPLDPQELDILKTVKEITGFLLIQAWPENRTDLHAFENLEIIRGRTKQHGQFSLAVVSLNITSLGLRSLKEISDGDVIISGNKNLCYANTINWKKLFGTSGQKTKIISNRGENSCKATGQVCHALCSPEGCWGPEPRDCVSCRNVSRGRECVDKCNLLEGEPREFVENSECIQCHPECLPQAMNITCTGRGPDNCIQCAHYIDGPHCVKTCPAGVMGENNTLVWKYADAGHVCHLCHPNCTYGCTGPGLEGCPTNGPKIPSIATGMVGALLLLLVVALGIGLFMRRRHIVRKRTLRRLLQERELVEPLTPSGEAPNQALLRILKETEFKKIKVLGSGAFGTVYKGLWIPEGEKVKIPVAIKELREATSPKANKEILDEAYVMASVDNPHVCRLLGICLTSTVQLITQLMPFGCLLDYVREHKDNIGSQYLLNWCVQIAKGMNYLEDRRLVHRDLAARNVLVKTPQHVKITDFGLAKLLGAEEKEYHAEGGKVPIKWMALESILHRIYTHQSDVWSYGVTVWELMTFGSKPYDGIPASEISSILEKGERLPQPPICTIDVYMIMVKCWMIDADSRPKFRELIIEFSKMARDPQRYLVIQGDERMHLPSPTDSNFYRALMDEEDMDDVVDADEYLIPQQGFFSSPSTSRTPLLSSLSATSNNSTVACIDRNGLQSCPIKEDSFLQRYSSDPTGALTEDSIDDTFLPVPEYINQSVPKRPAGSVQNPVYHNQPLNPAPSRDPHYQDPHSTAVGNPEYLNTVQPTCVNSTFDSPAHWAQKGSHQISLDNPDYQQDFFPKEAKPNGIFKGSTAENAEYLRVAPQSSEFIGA
# T4 sequence (P07948 whole entry, species assumed, the tested form may be a part): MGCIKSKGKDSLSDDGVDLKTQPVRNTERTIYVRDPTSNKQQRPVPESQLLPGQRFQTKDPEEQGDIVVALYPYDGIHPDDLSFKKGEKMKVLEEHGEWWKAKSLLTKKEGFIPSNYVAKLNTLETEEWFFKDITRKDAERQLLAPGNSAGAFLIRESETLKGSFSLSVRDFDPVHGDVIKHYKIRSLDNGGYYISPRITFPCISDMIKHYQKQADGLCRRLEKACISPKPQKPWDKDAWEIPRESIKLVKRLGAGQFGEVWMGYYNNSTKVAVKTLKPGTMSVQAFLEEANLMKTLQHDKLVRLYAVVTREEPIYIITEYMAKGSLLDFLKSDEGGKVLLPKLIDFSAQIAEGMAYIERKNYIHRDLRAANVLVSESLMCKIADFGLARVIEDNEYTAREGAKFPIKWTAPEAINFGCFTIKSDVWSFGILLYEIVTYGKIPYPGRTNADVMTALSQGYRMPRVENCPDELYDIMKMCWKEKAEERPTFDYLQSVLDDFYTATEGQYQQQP
# T9 sequence (P08631 whole entry, the tested form may be a part): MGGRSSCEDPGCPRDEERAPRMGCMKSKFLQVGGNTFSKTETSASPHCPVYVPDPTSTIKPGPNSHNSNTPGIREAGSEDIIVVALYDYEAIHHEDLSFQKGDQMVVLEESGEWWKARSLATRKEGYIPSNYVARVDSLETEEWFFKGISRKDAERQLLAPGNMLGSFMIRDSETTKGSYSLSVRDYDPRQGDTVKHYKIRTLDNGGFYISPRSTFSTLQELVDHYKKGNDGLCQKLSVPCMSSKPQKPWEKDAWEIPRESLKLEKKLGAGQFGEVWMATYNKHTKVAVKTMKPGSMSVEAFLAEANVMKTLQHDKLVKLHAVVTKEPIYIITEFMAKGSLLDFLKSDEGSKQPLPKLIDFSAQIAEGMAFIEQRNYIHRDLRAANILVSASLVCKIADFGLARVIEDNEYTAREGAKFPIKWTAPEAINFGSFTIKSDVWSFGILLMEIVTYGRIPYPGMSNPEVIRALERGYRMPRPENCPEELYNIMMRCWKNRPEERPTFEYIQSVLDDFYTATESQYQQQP
# T14 sequence (P06239 whole entry, species assumed, the tested form may be a part): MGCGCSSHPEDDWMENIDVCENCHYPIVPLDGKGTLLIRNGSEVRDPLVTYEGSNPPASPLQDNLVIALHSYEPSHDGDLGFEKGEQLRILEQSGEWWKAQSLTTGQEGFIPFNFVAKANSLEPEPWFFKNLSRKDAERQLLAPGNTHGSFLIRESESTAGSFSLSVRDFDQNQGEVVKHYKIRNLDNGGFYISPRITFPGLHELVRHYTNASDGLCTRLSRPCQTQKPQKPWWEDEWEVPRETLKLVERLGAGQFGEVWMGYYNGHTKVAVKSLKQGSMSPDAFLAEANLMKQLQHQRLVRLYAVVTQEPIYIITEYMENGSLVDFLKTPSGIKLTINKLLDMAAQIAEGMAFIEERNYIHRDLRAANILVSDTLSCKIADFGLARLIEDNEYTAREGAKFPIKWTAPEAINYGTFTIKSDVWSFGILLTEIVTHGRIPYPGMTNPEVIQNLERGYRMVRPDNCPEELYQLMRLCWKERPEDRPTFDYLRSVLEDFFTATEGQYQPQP
# T7 sequence (Q9Y243 whole entry, the tested form may be a part): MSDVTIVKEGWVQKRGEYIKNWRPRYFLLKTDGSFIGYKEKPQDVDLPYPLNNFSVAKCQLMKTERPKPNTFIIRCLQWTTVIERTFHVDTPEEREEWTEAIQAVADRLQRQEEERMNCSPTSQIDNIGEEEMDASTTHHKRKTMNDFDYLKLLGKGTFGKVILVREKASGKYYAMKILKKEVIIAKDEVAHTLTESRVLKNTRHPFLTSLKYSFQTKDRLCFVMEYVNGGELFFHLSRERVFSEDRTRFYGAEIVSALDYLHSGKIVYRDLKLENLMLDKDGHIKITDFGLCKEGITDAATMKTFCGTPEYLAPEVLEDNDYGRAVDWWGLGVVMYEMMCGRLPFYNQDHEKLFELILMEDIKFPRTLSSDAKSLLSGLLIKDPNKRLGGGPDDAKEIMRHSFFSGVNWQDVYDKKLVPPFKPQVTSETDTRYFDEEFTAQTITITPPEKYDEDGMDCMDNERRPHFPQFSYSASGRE
# T13 sequence (P35968 20-1356, species assumed): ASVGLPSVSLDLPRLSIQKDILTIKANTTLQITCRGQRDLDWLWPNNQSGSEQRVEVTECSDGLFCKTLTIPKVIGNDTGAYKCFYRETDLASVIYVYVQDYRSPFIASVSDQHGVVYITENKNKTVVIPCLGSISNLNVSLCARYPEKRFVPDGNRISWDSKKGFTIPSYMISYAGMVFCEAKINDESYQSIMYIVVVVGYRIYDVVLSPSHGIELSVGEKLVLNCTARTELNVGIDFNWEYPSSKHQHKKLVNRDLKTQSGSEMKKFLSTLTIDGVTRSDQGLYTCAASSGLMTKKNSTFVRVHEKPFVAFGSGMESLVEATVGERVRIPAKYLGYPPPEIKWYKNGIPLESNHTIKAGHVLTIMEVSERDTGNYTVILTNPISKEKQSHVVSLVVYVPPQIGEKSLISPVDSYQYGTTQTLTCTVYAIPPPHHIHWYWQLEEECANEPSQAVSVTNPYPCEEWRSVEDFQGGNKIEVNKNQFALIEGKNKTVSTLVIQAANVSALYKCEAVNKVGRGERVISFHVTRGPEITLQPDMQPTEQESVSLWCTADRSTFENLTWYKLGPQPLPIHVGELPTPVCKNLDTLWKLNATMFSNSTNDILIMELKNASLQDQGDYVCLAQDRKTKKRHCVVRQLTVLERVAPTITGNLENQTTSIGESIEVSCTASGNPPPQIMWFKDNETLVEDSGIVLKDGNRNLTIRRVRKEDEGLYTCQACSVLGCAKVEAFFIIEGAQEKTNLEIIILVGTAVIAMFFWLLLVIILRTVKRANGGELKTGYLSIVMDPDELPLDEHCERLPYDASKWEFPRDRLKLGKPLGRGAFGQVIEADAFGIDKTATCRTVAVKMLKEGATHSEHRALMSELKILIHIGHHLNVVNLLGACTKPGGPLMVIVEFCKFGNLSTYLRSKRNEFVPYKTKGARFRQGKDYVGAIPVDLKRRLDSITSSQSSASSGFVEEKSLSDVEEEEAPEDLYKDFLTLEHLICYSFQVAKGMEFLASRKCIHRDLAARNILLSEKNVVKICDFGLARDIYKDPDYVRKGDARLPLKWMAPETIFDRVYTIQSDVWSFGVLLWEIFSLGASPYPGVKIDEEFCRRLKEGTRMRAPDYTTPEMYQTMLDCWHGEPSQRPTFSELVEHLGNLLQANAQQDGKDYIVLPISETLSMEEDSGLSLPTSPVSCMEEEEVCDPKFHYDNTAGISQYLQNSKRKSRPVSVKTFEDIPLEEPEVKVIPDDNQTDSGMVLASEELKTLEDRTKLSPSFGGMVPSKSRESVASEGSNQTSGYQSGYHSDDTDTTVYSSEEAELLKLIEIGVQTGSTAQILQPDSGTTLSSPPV
IC50 (FGFR1) [µM],IC50 (EGFR) [µM],IC50 (Itk) [µM],IC50 (Lyn) [µM],IC50 (c-Met) [µM],IC50 (Zap-70) [µM],IC50 (AKT) [µM],IC50 (Tek) [µM],IC50 (Hck-1) [µM],IC50 (IGFR-1) [µM],IC50 (Fyn) [µM],IC50 (ErbB4) [µM],IC50 (Kdr) [µM],IC50 (Lck) [µM],Structure (SMILES)
1.26 to 7.56,< 1.26,7.56 to 11,< 1.26,7.56 to 11,11 to 14.2,7.56 to 11,7.56 to 11,1.26 to 7.56,< 1.26,1.26 to 7.56,1.26 to 7.56,1.26 to 7.56,11 to 14.2,Cc1cccc(Nc2ncnc(Nc3ccc4[nH]ncc4c3)n2)c1 [Compound 120]
< 1.26,< 1.26,7.59 to 11.1,< 1.26,11.1 to 14.2,> 14.2,> 14.2,> 14.2,7.59 to 11.1,1.26 to 7.59,< 1.26,1.26 to 7.59,< 1.26,1.26 to 7.59,Cc1cccc(Nc2ncnc(Nc3ccc4[nH]ccc4c3)n2)c1 [Compound 110]
> 9.99,< 0.888,> 9.99,< 0.888,> 9.99,> 9.99,> 9.99,> 9.99,> 9.99,5.33 to 7.77,> 9.99,> 9.99,< 0.888,7.77 to 9.99,COCCOc1ccc(Nc2ncnc(Nc3ccc4[nH]ccc4c3)n2)cc1OCCOC [Compound 321]
7.24 to 9.31,> 9.31,> 9.31,> 9.31,7.24 to 9.31,> 9.31,> 9.31,> 9.31,> 9.31,> 9.31,> 9.31,4.96 to 7.24,4.96 to 7.24,7.24 to 9.31,COc1cc(Nc2ncnc(-n3ccc4cc(OCc5ccccc5)ccc43)n2)cc(OC)c1OC [Compound 200]

# Further lines, the compound ahead of its results:
Structure (SMILES),IC50 (FGFR1) [µM],IC50 (EGFR) [µM],IC50 (Itk) [µM],IC50 (Lyn) [µM],IC50 (c-Met) [µM],IC50 (Zap-70) [µM],IC50 (AKT) [µM],IC50 (Tek) [µM],IC50 (Hck-1) [µM],IC50 (IGFR-1) [µM],IC50 (Fyn) [µM],IC50 (ErbB4) [µM],IC50 (Kdr) [µM],IC50 (Lck) [µM]
COc1ccc2c(ccn2-c2ncnc(Nc3cc(OC)c(OC)c(OC)c3)n2)c1 [Compound 196],5.89 to 8.59,8.59 to 11,> 11,5.89 to 8.59,> 11,> 11,> 11,> 11,> 11,0.982 to 5.89,> 11,> 11,< 0.982,> 11
COc1cc(Nc2ncnc(-n3c(NC(C)=O)nc4ccccc43)n2)cc(OC)c1OC [Compound 334],0.919 to 5.51,> 10.3,0.919 to 5.51,> 10.3,> 10.3,> 10.3,5.51 to 8.04,> 10.3,> 10.3,< 0.919,> 10.3,> 10.3,0.919 to 5.51,8.04 to 10.3
COc1cc(Nc2ncnc(-n3ccc4ccccc43)n2)cc(OC)c1OC [Compound 185],> 11.9,> 11.9,> 11.9,> 11.9,9.27 to 11.9,> 11.9,> 11.9,> 11.9,> 11.9,1.06 to 6.36,> 11.9,> 11.9,< 1.06,6.36 to 9.27
COc1cc(Nc2ncnc(Nc3ccc4c(ccn4Cc4ccccc4)c3)n2)cc(OC)c1OC [Compound 178],7.25 to 9.33,< 0.829,> 9.33,< 0.829,4.97 to 7.25,0.829 to 4.97,7.25 to 9.33,4.97 to 7.25,> 9.33,0.829 to 4.97,0.829 to 4.97,> 9.33,0.829 to 4.97,0.829 to 4.97
C=CCN(c1ccc(Cl)cc1)c1ncnc(Nc2cc(OC)c(OC)c(OC)c2)n1 [Compound 972],0.935 to 5.61,< 0.935,> 10.5,< 0.935,0.935 to 5.61,> 10.5,> 10.5,8.18 to 10.5,> 10.5,5.61 to 8.18,0.935 to 5.61,0.935 to 5.61,< 0.935,0.935 to 5.61
COC(=O)c1sccc1Nc1ncnc(Nc2cc(OC)c(OC)c(OC)c2)n1 [Compound 315],> 10.8,> 10.8,> 10.8,> 10.8,8.38 to 10.8,8.38 to 10.8,> 10.8,> 10.8,> 10.8,> 10.8,> 10.8,0.958 to 5.75,< 0.958,8.38 to 10.8
COc1cc(Nc2ncnc(Nc3ccc(OCc4ccccc4)cc3)n2)cc(OC)c1 [Compound 156],0.931 to 5.59,< 0.931,> 10.5,5.59 to 8.15,8.15 to 10.5,> 10.5,> 10.5,> 10.5,> 10.5,> 10.5,5.59 to 8.15,5.59 to 8.15,5.59 to 8.15,8.15 to 10.5
COc1cc(Nc2ncnc(Nc3cc(F)ccc3F)n2)cc(OC)c1OC [Compound 316],> 11.6,1.03 to 6.16,> 11.6,1.03 to 6.16,> 11.6,> 11.6,> 11.6,> 11.6,> 11.6,< 1.03,8.99 to 11.6,> 11.6,< 1.03,> 11.6
COCCOc1ccc(Nc2ncnc(Nc3ccc(C)c(O)c3)n2)cc1OCCOC [Compound 125],0.906 to 5.44,0.906 to 5.44,5.44 to 7.93,< 0.906,> 10.2,> 10.2,> 10.2,> 10.2,7.93 to 10.2,0.906 to 5.44,0.906 to 5.44,7.93 to 10.2,< 0.906,0.906 to 5.44
COc1cc(Nc2ncnc(Nc3ccc(Br)c(Cl)c3)n2)cc(OC)c1OC [Compound 936],0.857 to 5.14,< 0.857,5.14 to 7.5,< 0.857,> 9.64,> 9.64,> 9.64,> 9.64,5.14 to 7.5,< 0.857,< 0.857,0.857 to 5.14,0.857 to 5.14,0.857 to 5.14
